Patent publication US11885796B2, “Assay to identify anti-cancer agents” (LDN Pharma Limited, priority 2017, dated 2024)

Key:
Assay type in all cases: cell-based
BAD = assay: Level of expression of BAD by immunoblotting in HCT116 cells; details: 48 h (FIG. 2)
Experimental: (§1) In order to determine the effect of 6-β-naltrexol or naltrexone on the level of expression of OPRK1, A549 lung cancer or HCT116 colon cancer cells were seeded onto 6-well plates at a density of 2×10^5 cell/well, and allowed to adhere overnight. Cells were then cultured in the presence of naltrexone or 6-β-naltrexol at concentrations of 1 nM, 10 nM, 100 nM, 1 μM or 10 μM for a further 48 h. Cells were then harvested and processed for measurements of OPRK1, opioid receptor-μ1 (OPRM1) and GAPDH using standard immunoblotting techniques. The effect of 6-β-naltrexol or naltrexone on the level of expression of BAD was investigated by using the same protocol as outlined above. The effect was determined in HCT116 cells using either 10 nM or 10 μM of 6-β-naltrexol or 10 nM or 10 μM naltrexone (FIG. 2).

A549 and HCT116 cells = assay: Two-phase priming with 6-β-naltrexol then chemotherapy agent; cell number and viability by trypan blue cell counting
Experimental: The impact of combining 6-β-naltrexol with other chemotherapeutic agents was tested by culturing cells according to a treatment schedule that involved two phases of treatment. The first phase involved priming with 10 nM 6-β-naltrexol or 10 μM 6-β-naltrexol for 48 h, before treatment with another drug for a further 48 h. A549 and HCT116 cells were seeded into 6-well plates at a density of 2×10^5 cells/well and left to adhere overnight. Media was removed after 48 h, and cells were rinsed gently with drug-free medium. Fresh culture medium that contained cyclophosphamide (CPM), gemcitabine (GEM) or oxaliplatin (OXP) was then added to the cells. The concentrations of the chemotherapy agents used were approximately ¼ IC50, as established previously (Liu W M, Fowler D W, Smith P, Dalgleish A G. Pre-treatment with chemotherapy can enhance the antigenicity and immunogenicity of tumours by promoting adaptive immune responses. Br J Cancer. 2010 Jan. 5; 102(1):115-23). Cells were then left for a further 48 h before assessment of cell number of viability by cell counting using trypan blue dye as a way of discriminating live and dead cells. Cytostasis was indicated by a reduction in cell number and no associated reduction in cell viability.

OPRK1 [1] = assay: Level of expression of OPRK1 by immunoblotting in A549 lung cancer cells; details: 1 nM to 10 μM, 48 h, immunoblotting (FIG. 1)
Experimental: as §1

OPRK1 [2] = assay: Level of expression of OPRK1 by immunoblotting in HCT116 colon cancer cells; details: 1 nM to 10 μM, 48 h, immunoblotting (FIG. 1)
Experimental: as §1

Row | SMILES | effect on the level of expression of BAD (BAD; 10 nM) | increase of the level of expression of BAD (BAD; 10 μM) | independent cytotoxicity of the priming agent (A549 and HCT116 cells; higher dose of 6-β-naltrexol alone (double doses control)) | cytotoxic effect of certain anti-cancer agents after priming (A549 and HCT116 cells; priming 48 h in an amount sufficient to raise OPRK1 expression by at least 10%, then cyclophosphamide, gemcitabine or oxaliplatin at approximately ¼ IC50 for 48 h) | level of expression of OPRK1 (OPRK1 [1]) | level of expression of OPRK1 (OPRK1 [2]) | effect on the level of expression of BAD (BAD; 10 μM)
1 | Oc1ccc2c3c1OC1[C@H](O)CC[C@@]4(O)[C@@H](C2)N(CC2CC2)CC[C@]314 (stereo partly drawn) [6-β-naltrexol, 17-(Cyclopropylmethyl)-4,5-epoxymorphinan-3,6beta, 14-triol] | negligible effect | more than 10% | absence of any independent increase in cytotoxicity | increased | increase the level of expression | increases the level of expression | –
2 | O=C1CC[C@@]2(O)[C@H]3Cc4ccc(O)c5c4[C@@]2(CCN3CC2CC2)[C@H]1O5 [naltrexone] | negligible effect | – | – | – | increase the level of expression | down-regulates the level of expression | negligible effect
